Experimental data: patent publication US20260273074A1, “FERRITIN-TARGETING PROTACS AND METHODS OF INDUCING PYROPTOSIS” (Wisconsin Alumni Research Foundation, priority 2023, published 2026)

Key:
B16F10 cells [1] = assay: Morphology observation (pyroptosis); assay type: cell-based, murine; conditions: 5 μM, 24 h
Protocol: Morphology observation: 5×10^4 B16F10 cells were seeded in confocal dishes and cultured for 24 h at 37° C. […] After incubation for 24 h, the cells were washed with PBS and subjected to a Nikon Eclipse Ti Intensilight fluorescence microscope in a phase contrast mode for observation.

B16F10 cells [2] = assay: Determination of intracellular free iron content; assay type: cell-based, murine; conditions: 5 μM, 8 h
Protocol: Determination of free iron content: Here, the focus was on detecting the intracellular free iron ions rather than protein-bound iron contents. The procedures for sample preparation were based on a previously reported method. B16F10 cells were seeded in T75 cell culture flasks (2×10^6 cells per well) and cultured for 24 h. […] After incubation for 8 h, cells were harvested and resuspended in 1 mL PBS. Besides, 800 μL of PBS cell suspension was subjected to centrifugation, and 780 μL of the supernatant was carefully removed. Afterward, 280 μL of ultrapure water was added to the cell precipitate. Following shaking at horizontal rotators for 12 h, the supernatant was transferred into 30 KDa ultrafiltration centrifuge tube after twice centrifugation at 2,000 g for 20 min. […] The lysates were centrifuged at 12,000 rpm for 10 min at 4° C., followed by quantification of the total proteins in the supernatant through the BCA assay.
As for iron content determination, 200 μL of the abovementioned filtrates were collected and treated with 10 μL of hydrochloric acid solution (6 mol/L), 100 μL of acetic acid-sodium acetate buffer (pH=4.5), 10 μL of 10% aqueous hydroxylamine hydrochloride, and 100 μL of o-phenanthroline (1 mg/mL). […] The iron ion content could be calculated according to the standard curve. […]

[3] = Solubility in the ITC buffer; assay type: physicochemical; conditions: 20 mM Tris-HCl pH 8.5, 130 mM NaCl, 0.05% DMSO
ferritin and VHL = target: T1, ferritin and VHL (Mus musculus, UniProt P09528+P29391+P40338); assay: Co-immunoprecipitation of ferritin with anti-VHL antibody (ternary complex formation); assay type: cell-based, murine; conditions: B16F10 cells, 5 μM, 2 h
T1 construct: endogenous in cells; host or cells: B16F10 (murine melanoma)
Protocol: Co-Immunoprecipitation assay: B16F10 cells were seeded in T75 cell culture flasks (2×10^6 cells per well) and cultured for 24 h. […] After incubation for 2 h, cells were washed with cold PBS and lysed on ice with IP lysis buffer (50 mM Tris-HCl, pH 7.4; 150 mM NaCl; 2 mM EDTA; 1% NP-40) containing phenylmethylsulfonyl fluoride (PMSF, 1 mM) and the phosphatase inhibitor cocktail for 30 min. The lysates were collected and centrifuged at 10,000 g for 10 minutes at 4° C. On the one hand, 10 μL of lysate supernatants were saved as the input samples. On the other hand, 25 μL of magnetic beads was added to each supernatant in microcentrifuge tubes, and the resulting mixtures were incubated at 4° C. with gentle rotation for 30 min. Next, the sample-containing tube was placed on a magnetic rack for 1 minute, and the supernatant was transferred into a new microcentrifuge tube placed on ice, serving as the precleared samples. The total proteins in the precleared samples were quantified through the BCA assay. Each precleared lysate was added an appropriate amount of mouse monoclonal IgG1 κ anti-VHL antibody (sc-135657, Santa Cruz Biotechnology) and then incubated at 4° C. for 2 hours with gentle rotation. After that, the pre-washed magnetic bead (equal to 25 μL of magnetic beads) was added to each sample. The resulting mixtures were incubated at room temperature for 1 h with gentle rotation. […]

ferritin (Mus musculus) = test system: T2, ferritin (Mus musculus); assay: Western blot of ferritin expression (ferritin degradation) in B16F10 cells; assay type: cell-based, murine; conditions: B16F10 cells
T2 construct: ferritin expression levels in B16F10 cells were evaluated; endogenous in cells; host or cells: B16F10 (murine melanoma)
Protocol: Western blot analysis: After various treatments, ferritin expression levels in B16F10 cells were evaluated to investigate the DeFer-2-mediated ferritin degradation. Briefly, B16F10 cells were seeded in 6-well culture plates (5×10^4 cells per well) and cultured for 24 h. Then the medium in the corresponding wells except the negative control was replaced with 1 mL of medium containing ferritin degraders, albumin nanoparticles, the epimer formulations, the combination of VHL ligand and oleic acid, or the combination of the degrader and VHL ligand at the indicated concentrations. […] The lysates were centrifuged at 12,000 rpm for 10 min at 4° C., followed by quantification of the total proteins in the supernatant through the bicinchoninic acid assay (BCA) assay. Afterward, the proteins in the supernatant were mixed with the loading buffer and heated at 95° C. for 15 min. Equal amounts of proteins from different samples were loaded into 15% SDS-polyacrylamide gel (20 μg protein per lane) to separate target proteins. After separation, proteins were transferred to polyvinylidene fluoride (PVDF) membranes before the membranes were blocked with 5% nonfat milk in PBST. Then proteins were incubated with primary antibodies overnight at 4° C., followed by the incubation with the goat-anti-rabbit IgG H&L (HRP) secondary antibodies at room temperature for 2 h. Finally, the bands were detected with electrochemiluminescence (ECL) western blot substrate for imaging, and ImageJ software was used for quantification.

T1 sequence (P09528 2-182 limits assumed): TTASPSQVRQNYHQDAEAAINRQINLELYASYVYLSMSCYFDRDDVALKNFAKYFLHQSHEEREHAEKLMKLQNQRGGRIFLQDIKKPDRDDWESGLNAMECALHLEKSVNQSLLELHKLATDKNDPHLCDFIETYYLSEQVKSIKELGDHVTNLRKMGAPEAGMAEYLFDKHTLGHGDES
T1 sequence (P29391 2-183 limits assumed): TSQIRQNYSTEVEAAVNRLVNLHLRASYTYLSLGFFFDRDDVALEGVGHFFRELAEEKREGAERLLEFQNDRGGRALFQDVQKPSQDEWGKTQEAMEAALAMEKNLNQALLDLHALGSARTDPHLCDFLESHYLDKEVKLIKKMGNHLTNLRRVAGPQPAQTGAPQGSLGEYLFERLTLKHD
T1 sequence (P40338 whole entry): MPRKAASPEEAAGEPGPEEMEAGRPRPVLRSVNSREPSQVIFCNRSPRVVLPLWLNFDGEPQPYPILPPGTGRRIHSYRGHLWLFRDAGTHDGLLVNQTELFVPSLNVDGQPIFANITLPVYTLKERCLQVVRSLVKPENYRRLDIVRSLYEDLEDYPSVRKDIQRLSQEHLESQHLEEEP
T1 sequence (P62869 whole entry partner): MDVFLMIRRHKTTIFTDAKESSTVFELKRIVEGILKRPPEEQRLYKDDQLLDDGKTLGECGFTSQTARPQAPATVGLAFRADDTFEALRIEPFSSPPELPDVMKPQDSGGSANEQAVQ
T1 sequence (P83940 whole entry partner): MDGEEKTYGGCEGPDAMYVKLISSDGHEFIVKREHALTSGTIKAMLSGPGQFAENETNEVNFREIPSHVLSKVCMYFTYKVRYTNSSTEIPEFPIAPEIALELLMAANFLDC

What does the source list for `CCCCCCCCC=CCCCCCCCC(=O)NCCCC(=O)NC(C(=O)N1CC(O)CC1C(=O)NCc1ccc(-c2scnc2C)cc1)C(C)(C)C` (centres unmarked) [DeFer-2]?
morphology of dying cells (B16F10 cells [1]): obvious swelling and characteristic membrane blebbing; intracellular free iron content (B16F10 cells [2]): significant elevation; solubility in the ITC buffer [3]: relatively low solubility; ferritin co-precipitated with VHL (ferritin and VHL): could induce ferritin co-precipitated with VHL; ferritin expression over time (ferritin (Mus musculus); 0.5 μM, 0-24 h): reduced the ferritin expression in a time-dependent manner; ferritin degradation (ferritin (Mus musculus); 0.5 μM, 12 h (FIG. 5A)): successfully induced the ferritin degradation; degradation capacity compared among the three PROTACs (ferritin (Mus musculus); 0.5 μM, different time points): most potent degradation capacity with a longer duration of action; maximum ferritin degraded (ferritin (Mus musculus); 5 μM, 12 h): 58%
